According to ChEMBL document CHEMBL1137531, “Structure-based design and synthesis of (5-arylamino-2H-pyrazol-3-yl)-biphenyl-2',4'-diols as novel and potent human CHK1 inhibitors” (J Med Chem, 2007):
Activity calls are given as the source filed them. The calls are words filed in the database; no cut-off is given here.

Columns and labels:
MDA-MB-231 = assay: Cell cycle arrest in MDA-MB-231 cells assessed as accumulation at S phase by FACS analysis; type: functional, cell-based; settings: Homo sapiens
[1] = target: Inhibitor of nuclear factor kappa-B kinase subunit epsilon (Homo sapiens) (UniProt Q14164); assay: Inhibition of IKKi at 1 uM
[2] = target: Cyclin-dependent kinase 2 (Homo sapiens) (UniProt P24941); assay: Inhibition of CDK2 at 1 uM
[3] = target: Mitogen-activated protein kinase 1 (Homo sapiens) (UniProt P28482); assay: Inhibition of ERK2 at 1 uM
[4] = target: Tyrosine-protein kinase ABL1 (Homo sapiens, UniProt P00519); assay: Inhibition of ABL
[5] = target: T1, RAC-alpha serine/threonine-protein kinase (Homo sapiens, UniProt P31749); assay: Inhibition of AKT1 at 1 uM
[6] = Inhibition of human VEGFR expressed in baculovirus/insect cell system by FLVK-P assay
[7] = target: Glycogen synthase kinase-3 beta (Homo sapiens) (UniProt P49841); assay: Inhibition of GSK3-beta at 1 uM
[8] = target: MAP kinase-activated protein kinase 2 (Mus musculus) (UniProt P49138); assay: Inhibition of mouse MAPKAP2 at 1 uM
[9] = target: Serine/threonine-protein kinase Chk2 (Homo sapiens) (UniProt O96017); assay: Inhibition of human CHK2 expressed in Escherichia coli at 1 uM
[10] = target: Protein kinase C zeta type (Homo sapiens) (UniProt Q05513); assay: Inhibition of PKCzeta at 1 uM
[11] = target: Serine/threonine-protein kinase PAK 4 (Homo sapiens, UniProt O96013); assay: Inhibition of PAK4
[12] = target: Cyclin-dependent kinase 1 (Homo sapiens, UniProt P06493); assay: Inhibition of CDK1 expressed in Sf21 cells
[13] = target: Calcium/calmodulin-dependent protein kinase type 1 (Homo sapiens, UniProt Q14012); assay: Inhibition of CAMK1
Aurora kinase A = Aurora kinase A (Homo sapiens, UniProt O14965); assay: Inhibition of Aurora A
[14] = target: Inhibitor of nuclear factor kappa-B kinase subunit beta (Homo sapiens) (UniProt O14920); assay: Inhibition of IKK-beta at 1 uM
[15] = target: Protein kinase C alpha type (Homo sapiens) (UniProt P17252); assay: Inhibition of PKCalpha at 1 uM
[16] = Inhibition of bovine PKA
[17] = target: Protein kinase C beta type (Homo sapiens) (UniProt P05771); assay: Inhibition of PKCbeta at 1 uM
[18] = target: Serine/threonine-protein kinase Sgk1 (Homo sapiens, UniProt O00141); assay: Inhibition of human SGK
[19] = target: Casein kinase II (Homo sapiens) (UniProt P67870+P68400+P19784); assay: Inhibition of CK2 at 1 uM; type: protein-complex assay
[20] = target: Mitogen-activated protein kinase 1 (Homo sapiens) (UniProt P28482); assay: Inhibition of human MAPK1 at 1 uM
[21] = target: 3-phosphoinositide-dependent protein kinase 1 (Homo sapiens) (UniProt O15530); assay: Inhibition of human PDK1 at 1 uM
[22] = target: Serine/threonine-protein kinase 26 (Homo sapiens, UniProt Q9P289); assay: Inhibition of MASK
[23] = target: Dual specificity protein kinase CLK1 (Homo sapiens) (UniProt P49759); assay: Inhibition of CLK at 1 uM
[24] = target: T1, RAC-alpha serine/threonine-protein kinase; assay: Inhibition of AKT1
[25] = target: Proto-oncogene tyrosine-protein kinase Src (Homo sapiens) (UniProt P12931); assay: Inhibition of SRC at 1 uM
Insulin receptor = Insulin receptor (Homo sapiens, UniProt P06213); assay: Inhibition of INSR
[26] = target: Serine/threonine-protein kinase Nek2 (Homo sapiens, UniProt P51955); assay: Inhibition of NEK2
[27] = target: Tyrosine-protein kinase Lck (Homo sapiens, UniProt P06239); assay: Inhibition of human LCK
[28] = target: Rho-associated protein kinase 1 (Homo sapiens) (UniProt Q13464); assay: Inhibition of ROCK1 activity at 1 uM
[29] = target: Serine/threonine-protein kinase pim-2 (Homo sapiens, UniProt Q9P1W9); assay: Inhibition of PIM2
[30] = target: Serine/threonine-protein kinase Chk1 (Homo sapiens) (UniProt O14757); assay: Activity at human CHK1 in CA46 cells by histone H3 ELISA assay at 10 uM; type: cell-based
[31] = target: Serine/threonine-protein kinase Chk1 (Homo sapiens) (UniProt O14757); assay: Activity at human CHK1 in CA46 cells by histone H3 ELISA assay at 1.0 uM; type: cell-based
[32] = target: T2, Serine/threonine-protein kinase Chk1 (Homo sapiens, UniProt O14757); assay: Inhibition of human CHK1 expressed in baculovirus/insect cell system
T2 sequence (O14757 whole entry): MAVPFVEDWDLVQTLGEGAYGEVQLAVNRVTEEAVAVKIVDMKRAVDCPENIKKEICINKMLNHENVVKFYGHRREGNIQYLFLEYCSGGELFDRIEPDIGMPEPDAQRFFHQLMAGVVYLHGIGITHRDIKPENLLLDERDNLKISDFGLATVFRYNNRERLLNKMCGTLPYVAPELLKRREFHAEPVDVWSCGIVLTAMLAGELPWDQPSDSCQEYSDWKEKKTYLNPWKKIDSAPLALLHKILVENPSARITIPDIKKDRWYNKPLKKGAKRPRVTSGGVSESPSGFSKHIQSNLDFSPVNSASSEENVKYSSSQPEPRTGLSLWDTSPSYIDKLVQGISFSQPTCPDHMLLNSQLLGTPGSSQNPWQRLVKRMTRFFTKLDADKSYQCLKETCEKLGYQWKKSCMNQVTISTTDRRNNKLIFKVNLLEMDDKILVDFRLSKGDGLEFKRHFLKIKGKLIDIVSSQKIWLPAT

[33] = target: T2, Serine/threonine-protein kinase Chk1; assay: Activity at human CHK1 in CA46 cells by histone H3 ELISA assay; type: cell-based

T1 sequence (P31749 whole entry): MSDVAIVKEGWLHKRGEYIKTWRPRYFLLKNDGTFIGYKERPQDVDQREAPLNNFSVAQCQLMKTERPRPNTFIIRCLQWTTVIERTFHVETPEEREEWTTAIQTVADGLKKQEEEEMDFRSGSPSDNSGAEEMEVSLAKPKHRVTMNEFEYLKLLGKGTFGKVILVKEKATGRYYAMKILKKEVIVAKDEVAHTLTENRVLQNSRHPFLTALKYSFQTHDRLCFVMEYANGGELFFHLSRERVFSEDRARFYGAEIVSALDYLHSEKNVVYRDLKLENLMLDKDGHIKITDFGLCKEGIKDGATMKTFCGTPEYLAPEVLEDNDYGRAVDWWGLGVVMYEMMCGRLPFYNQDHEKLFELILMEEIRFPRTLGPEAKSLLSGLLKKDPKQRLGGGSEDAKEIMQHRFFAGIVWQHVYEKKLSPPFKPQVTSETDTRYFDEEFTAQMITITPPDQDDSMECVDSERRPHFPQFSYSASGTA
Chain of Mitogen-activated protein kinase 1 (Homo sapiens) (P28482 whole entry): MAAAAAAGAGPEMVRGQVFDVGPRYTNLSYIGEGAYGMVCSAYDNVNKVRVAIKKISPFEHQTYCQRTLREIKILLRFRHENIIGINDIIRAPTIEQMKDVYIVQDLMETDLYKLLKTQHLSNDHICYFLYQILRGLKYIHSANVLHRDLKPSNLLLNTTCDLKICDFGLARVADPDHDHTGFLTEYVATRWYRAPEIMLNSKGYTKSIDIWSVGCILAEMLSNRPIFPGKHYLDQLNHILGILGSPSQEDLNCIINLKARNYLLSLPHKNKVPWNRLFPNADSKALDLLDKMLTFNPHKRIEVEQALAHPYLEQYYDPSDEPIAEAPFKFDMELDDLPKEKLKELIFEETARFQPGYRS
Chain of Inhibitor of nuclear factor kappa-B kinase subunit beta (Homo sapiens) (O14920 whole entry): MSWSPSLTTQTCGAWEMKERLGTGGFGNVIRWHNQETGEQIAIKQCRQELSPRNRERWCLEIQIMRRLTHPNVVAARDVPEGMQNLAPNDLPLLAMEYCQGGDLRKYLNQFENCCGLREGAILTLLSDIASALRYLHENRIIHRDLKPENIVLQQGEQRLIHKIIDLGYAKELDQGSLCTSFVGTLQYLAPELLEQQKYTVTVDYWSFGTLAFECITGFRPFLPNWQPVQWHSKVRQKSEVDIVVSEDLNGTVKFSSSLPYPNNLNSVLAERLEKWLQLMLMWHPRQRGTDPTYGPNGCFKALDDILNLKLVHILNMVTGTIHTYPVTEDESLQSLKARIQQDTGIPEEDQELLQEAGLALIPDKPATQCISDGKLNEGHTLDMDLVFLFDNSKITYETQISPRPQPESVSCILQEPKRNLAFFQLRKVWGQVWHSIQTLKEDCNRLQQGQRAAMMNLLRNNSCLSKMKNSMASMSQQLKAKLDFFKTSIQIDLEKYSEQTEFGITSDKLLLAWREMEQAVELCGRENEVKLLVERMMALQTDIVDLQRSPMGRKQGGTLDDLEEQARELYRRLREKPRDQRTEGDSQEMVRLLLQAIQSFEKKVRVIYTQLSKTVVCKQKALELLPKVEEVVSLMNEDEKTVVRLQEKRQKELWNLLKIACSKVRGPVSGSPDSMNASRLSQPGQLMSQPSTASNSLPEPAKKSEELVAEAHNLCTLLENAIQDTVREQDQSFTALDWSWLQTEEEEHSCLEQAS
Chain of Serine/threonine-protein kinase pim-2 (Q9P1W9 whole entry): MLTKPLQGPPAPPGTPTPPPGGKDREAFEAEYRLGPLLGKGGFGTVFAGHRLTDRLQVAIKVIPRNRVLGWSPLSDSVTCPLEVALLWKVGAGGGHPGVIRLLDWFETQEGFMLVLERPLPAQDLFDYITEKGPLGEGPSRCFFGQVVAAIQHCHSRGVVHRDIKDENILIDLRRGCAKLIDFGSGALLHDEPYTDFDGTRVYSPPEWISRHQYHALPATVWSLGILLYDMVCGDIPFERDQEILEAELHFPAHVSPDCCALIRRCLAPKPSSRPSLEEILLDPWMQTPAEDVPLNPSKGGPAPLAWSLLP
Chain of MAP kinase-activated protein kinase 2 (Mus musculus) (P49138 whole entry): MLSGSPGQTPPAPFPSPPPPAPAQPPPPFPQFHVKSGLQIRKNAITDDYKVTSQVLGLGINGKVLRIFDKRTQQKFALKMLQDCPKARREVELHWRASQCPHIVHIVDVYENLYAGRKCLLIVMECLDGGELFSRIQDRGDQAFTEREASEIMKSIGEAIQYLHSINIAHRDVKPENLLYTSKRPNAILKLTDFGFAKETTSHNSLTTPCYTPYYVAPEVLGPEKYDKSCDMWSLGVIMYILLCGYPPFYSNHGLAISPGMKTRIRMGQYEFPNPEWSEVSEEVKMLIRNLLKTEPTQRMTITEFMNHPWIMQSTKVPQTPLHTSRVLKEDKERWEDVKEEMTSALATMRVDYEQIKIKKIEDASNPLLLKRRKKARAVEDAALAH
Chain of 3-phosphoinositide-dependent protein kinase 1 (Homo sapiens) (O15530 whole entry, looked up): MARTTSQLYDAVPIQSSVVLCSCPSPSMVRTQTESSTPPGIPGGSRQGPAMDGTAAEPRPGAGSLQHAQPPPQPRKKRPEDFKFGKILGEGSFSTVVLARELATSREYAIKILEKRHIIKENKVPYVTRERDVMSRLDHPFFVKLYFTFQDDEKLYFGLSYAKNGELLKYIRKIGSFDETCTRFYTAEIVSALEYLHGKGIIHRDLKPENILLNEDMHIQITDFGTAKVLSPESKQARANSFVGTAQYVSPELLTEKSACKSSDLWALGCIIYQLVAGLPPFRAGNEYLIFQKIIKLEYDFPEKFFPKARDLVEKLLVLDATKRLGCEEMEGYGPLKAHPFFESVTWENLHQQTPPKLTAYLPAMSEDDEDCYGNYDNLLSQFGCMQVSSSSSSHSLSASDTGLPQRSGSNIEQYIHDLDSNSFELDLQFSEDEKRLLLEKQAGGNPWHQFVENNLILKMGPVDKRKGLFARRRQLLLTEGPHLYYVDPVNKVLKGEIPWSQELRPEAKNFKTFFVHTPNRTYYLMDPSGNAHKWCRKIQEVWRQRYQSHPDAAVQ
Chain of Serine/threonine-protein kinase Chk2 (Homo sapiens) (O96017 whole entry): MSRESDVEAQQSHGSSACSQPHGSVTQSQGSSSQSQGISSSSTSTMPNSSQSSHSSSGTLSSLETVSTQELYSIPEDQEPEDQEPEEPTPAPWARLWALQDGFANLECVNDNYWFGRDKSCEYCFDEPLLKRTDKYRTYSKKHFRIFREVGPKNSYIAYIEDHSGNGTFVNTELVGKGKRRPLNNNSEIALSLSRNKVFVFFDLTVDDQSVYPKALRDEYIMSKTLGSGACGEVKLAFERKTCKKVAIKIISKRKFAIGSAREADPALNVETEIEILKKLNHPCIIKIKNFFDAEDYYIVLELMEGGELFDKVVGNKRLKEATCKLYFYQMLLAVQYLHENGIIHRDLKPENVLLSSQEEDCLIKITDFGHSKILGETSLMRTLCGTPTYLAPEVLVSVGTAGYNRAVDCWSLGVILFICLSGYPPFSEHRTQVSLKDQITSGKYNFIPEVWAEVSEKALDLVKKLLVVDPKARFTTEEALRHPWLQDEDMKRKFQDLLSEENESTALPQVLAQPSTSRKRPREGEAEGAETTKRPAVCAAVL
Chain of Calcium/calmodulin-dependent protein kinase type 1 (Q14012 whole entry): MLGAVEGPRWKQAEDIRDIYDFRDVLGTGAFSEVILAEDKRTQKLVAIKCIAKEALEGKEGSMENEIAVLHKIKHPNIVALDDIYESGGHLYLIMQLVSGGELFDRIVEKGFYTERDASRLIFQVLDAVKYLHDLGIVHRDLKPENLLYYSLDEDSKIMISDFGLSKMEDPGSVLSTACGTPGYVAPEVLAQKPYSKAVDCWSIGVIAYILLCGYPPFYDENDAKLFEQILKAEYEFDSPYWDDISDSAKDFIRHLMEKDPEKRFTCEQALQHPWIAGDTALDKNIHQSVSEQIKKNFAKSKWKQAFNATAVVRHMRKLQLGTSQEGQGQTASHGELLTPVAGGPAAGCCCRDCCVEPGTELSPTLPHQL
Chain of Dual specificity protein kinase CLK1 (Homo sapiens) (P49759 whole entry, looked up): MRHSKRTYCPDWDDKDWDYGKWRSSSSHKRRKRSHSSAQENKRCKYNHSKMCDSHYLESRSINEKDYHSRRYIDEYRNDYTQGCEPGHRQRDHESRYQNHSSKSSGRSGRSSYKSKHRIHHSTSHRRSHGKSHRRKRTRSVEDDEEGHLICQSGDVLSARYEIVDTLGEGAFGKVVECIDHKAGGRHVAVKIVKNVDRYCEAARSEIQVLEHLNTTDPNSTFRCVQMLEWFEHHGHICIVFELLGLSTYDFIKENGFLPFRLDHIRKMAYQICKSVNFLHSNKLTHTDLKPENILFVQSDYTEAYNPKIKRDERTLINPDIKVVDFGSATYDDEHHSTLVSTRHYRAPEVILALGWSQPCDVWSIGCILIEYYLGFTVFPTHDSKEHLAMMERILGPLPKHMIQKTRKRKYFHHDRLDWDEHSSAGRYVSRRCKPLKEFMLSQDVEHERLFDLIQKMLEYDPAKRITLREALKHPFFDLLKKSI

For Nc1ccn([C@@H]2O[C@H](CO)[C@@H](O)C2(F)F)c(=O)n1, the Activity (MDA-MB-231) was “Active”.
With CC(C)NCc1ccc(Nc2cc(-c3ccc(-c4ccc(O)cc4O)cc3)[nH]n2)cc1 the inhibition [1] was 26%, the inhibition [2] was 31% and the inhibition [3] was -2%. For the same molecule, the IC50 [4] was 1100 nM, the inhibition [5] was 7% and the IC50 [6] was 1030 nM. For the same molecule, the inhibition [7] was 30%, the inhibition [8] was 0.7% and the inhibition [9] was 27.5%. For the same molecule, the inhibition [10] was 18.6%, the IC50 [11] was 14400 nM and the IC50 [12] was 3300 nM. For the same molecule, the IC50 [13] was 2130 nM, the IC50 (Aurora kinase A) was 10000 nM and the inhibition [14] was 12.7%. For the same molecule, the inhibition [15] was 0%, the IC50 [16] was 860 nM and the inhibition [17] was 16%. The IC50 [18] was 290 nM, the inhibition [19] was 29% and the inhibition [20] was 14.5%. The inhibition [21] was 33%, the IC50 [22] was 1850 nM and the inhibition [23] was 24%. The IC50 [24] was 26900 nM, the inhibition [25] was 8% and the IC50 (Insulin receptor) was > 30000 nM. For the same molecule, the IC50 [26] was 1040 nM, the IC50 [27] was 2550 nM and the inhibition [28] was 13.5%. It also gave an IC50 [29] of 1720 nM.
With O=C(Nc1ccc(O)cc1)c1ccc2c(-c3nc4ccccc4[nH]3)n[nH]c2c1 the Activity [30] was “Active” and the Activity [31] was “inactive”.
Molecule CCC(C)NCc1ccc(Nc2cc(-c3ccc(-c4ccc(O)cc4O)cc3)n[nH]2)cn1 (stereo not given) has a Ki [32] of 0.2 nM and an EC50 [33] of 230 nM.
Molecule Oc1ccc(-c2ccc(-c3cc(Nc4ccc(CN5CCCCC5)nc4)[nH]n3)cc2)c(O)c1 has a Ki [32] of 0.3 nM and an EC50 [33] of 150 nM.
Oc1ccc(-c2ccc(-c3cc(Nc4ccccc4)n[nH]3)cc2)c(O)c1 showed a Ki [32] of 1.2 nM and an EC50 [33] of 500 nM.
Oc1ccc(-c2ccc(-c3cc(Nc4ccc(CNCC5CC5)nc4)[nH]n3)cc2)c(O)c1 gave a Ki [32] of 0.8 nM and an EC50 [33] of 165 nM.
Work on Oc1ccc(-c2ccc(-c3cc(Nc4ccc(CNC5CC5)cc4)n[nH]3)cc2)c(O)c1 yielded a Ki [32] of 0.38 nM and an EC50 [33] of 60 nM.
In the case of Oc1ccc(-c2ccc(-c3cc(Nc4ccc(CN5CCCC5)cc4)n[nH]3)cc2)c(O)c1, the Ki [32] is reported as 0.18 nM and the EC50 [33] is reported as 41 nM.
For O=C(Nc1ccc(O)cc1O)c1ccc2c(-c3nc4ccccc4[nH]3)n[nH]c2c1, the Ki [32] was 0.5 nM and the EC50 [33] was 550 nM.
Work on CN(C)Cc1ccc(Nc2cc(-c3ccc(-c4ccc(O)cc4O)cc3)[nH]n2)cc1 yielded a Ki [32] of 0.19 nM and an EC50 [33] of 58 nM.
